Measured values taken from ChEMBL document CHEMBL3244064, “Conformational effects on the activity of drugs. 7. Synthesis and pharmacological properties of 2-(p-nitrophenyl)-substituted morpholines” (J Med Chem, 1979).
Calls of active or inactive are those of the source. The calls are words filed in the database; no cut-off is given here.

How the values were obtained:
Type in all cases: protein assay
[1] = biological target: T1, Adrenergic receptor alpha (Rattus norvegicus) (UniProt P15823+P23944+P43140+P22086+P19328+P22909); test: Stimulation of alpha-adrenergic receptor in ICEM:CER SPF Caw rat vas deferens assessed as muscle contraction after 2 to 3 mins relative to norepinephrine
[2] = biological target: T1, Adrenergic receptor alpha (Rattus norvegicus); test: Stimulation of alpha-adrenergic receptor in ICEM:CER SPF Caw rat vas deferens assessed as potentiation of norepinephrine response at 50 uM after 2 to 3 mins
[3] = biological target: T1, Adrenergic receptor alpha (Rattus norvegicus); test: Stimulation of alpha-adrenergic receptor in ICEM:CER SPF Caw rat vas deferens assessed as muscle contraction after 2 to 3 mins in presence of alpha-adrenoceptor blocker dihydroergotamine
[4] = biological target: T1, Adrenergic receptor alpha (Rattus norvegicus); test: Stimulation of alpha-adrenergic receptor in reserpine-pretreated ICEM:CER SPF Caw rat vas deferens assessed as muscle contraction after 2 to 3 mins
[5] = biological target: T1, Adrenergic receptor alpha (Rattus norvegicus); test: Stimulation of alpha-adrenergic receptor in ICEM:CER SPF Caw rat vas deferens assessed as muscle contraction after 2 to 3 mins relative to INPEA

With `CC(C)NCC(O)c1ccc([N+](=O)[O-])cc1` (stereo not drawn) the Ratio [1] was 0.0045, the Activity [2] was 209% and the Activity [3] was “inactive”. For the same molecule, the Activity [4] was “Active”.
Work on `CC(C)(C)N1CCOC(c2ccc([N+](=O)[O-])cc2)C1` (stereo not drawn) yielded a Ratio [1] of 0.0029, a Ratio [5] of 0.64 and an Activity [2] of 169%. For the same molecule, the Activity [3] was “inactive”.
`CC(C)N1CCOC(c2ccc([N+](=O)[O-])cc2)C1` (stereo not drawn) gave a Ratio [1] of 0.0045, a Ratio [5] of 1 and an Activity [2] of 223%. For the same molecule, the Activity [3] was “inactive” and the Activity [4] was “Active”.
`NCC(O)c1ccc([N+](=O)[O-])cc1` (stereo not drawn) gave a Ratio [1] of 0.0075, a Ratio [5] of 1.66 and an Activity [2] of 179%. The Activity [3] was “inactive”.
`CC(C)(C)NCC(O)c1ccc([N+](=O)[O-])cc1` (stereo not drawn) showed a Ratio [1] of 0.0012, a Ratio [5] of 0.27 and an Activity [2] of 127%. For the same molecule, the Activity [3] was “inactive”.
For `CNCC(O)c1ccc([N+](=O)[O-])cc1` (stereo not drawn), the Ratio [1] was 0.0047, the Ratio [5] was 1.04 and the Activity [2] was 253%. The Activity [3] was “inactive”.
Molecule `CN1CCOC(c2ccc([N+](=O)[O-])cc2)C1` (stereo not drawn) has a Ratio [1] of 0.0014, a Ratio [5] of 0.31 and an Activity [2] of 192%. The Activity [3] was “inactive”.
Work on `O=[N+]([O-])c1ccc(C2CNCCO2)cc1` (stereo not drawn) yielded a Ratio [1] of 0.0063, a Ratio [5] of 1.4 and an Activity [2] of 203%. The Activity [3] was “inactive”.
